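1) Cells in 96-well plates. 2) Compound, 48 h, 5 concentrations. 3) Linear interpolation between surrounding doses. 4) Unreached endpoint = highest concentration. GI50: concentration for 50% inhibition of growth.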 Activity calls are given as the source filed them. No stated cut-off is given here; in the data, active = GI50 up to about 1.1 µM and inactive = higher.
What was measured:
Experiment in all cases: NCI tumour cell line growth inhibition, 48 h
M14 = test system: M14
A549 = test system: A549
NCI-H226 = test system: NCI-H226
T47D = test system: T47D
PC-3 = test system: PC-3
OVCAR-5 = test system: OVCAR-5
Hs-578T = test system: Hs-578T
OVCAR-4 = test system: OVCAR-4
786-0 = test system: 786-0
HOP-92 = test system: HOP-92
RPMI-8226 = test system: RPMI-8226
UO-31 = test system: UO-31
SK-MEL-28 = test system: SK-MEL-28
SK-MEL-2 = test system: SK-MEL-2
NCI-H23 = test system: NCI-H23
SW-620 = test system: SW-620
MDA-MB-231 = test system: MDA-MB-231
SN12C = test system: SN12C
SK-OV-3 = test system: SK-OV-3
TK-10 = test system: TK-10
EKVX = test system: EKVX
NCI/ADR-RES = test system: NCI/ADR-RES
HCT-15 = test system: HCT-15
SNB-75 = test system: SNB-75
LOX IMVI = test system: LOX IMVI
NCI-H522 = test system: NCI-H522
NCI-H460 = test system: NCI-H460
OVCAR-3 = test system: OVCAR-3
KM12 = test system: KM12
DU-145 = test system: DU-145
HCC 2998 = test system: HCC 2998
MCF7 = test system: MCF7
SF-268 = test system: SF-268
UACC-257 = test system: UACC-257
HOP-62 = test system: HOP-62
OVCAR-8 = test system: OVCAR-8
COLO 205 = test system: COLO 205
MDA-MB-435 = test system: MDA-MB-435
Malme-3M = test system: Malme-3M
ACHN = test system: ACHN
HT-29 = test system: HT-29
HCT-116 = test system: HCT-116
RXF 393 = test system: RXF 393
UACC-62 = test system: UACC-62
SK-MEL-5 = test system: SK-MEL-5
U-251 = test system: U-251
SF-539 = test system: SF-539
CAKI-1 = test system: CAKI-1
A498 = test system: A498
MDA-N = test system: MDA-N
MOLT-4 = test system: MOLT-4
IGROV-1 = test system: IGROV-1
SNB-19 = test system: SNB-19
SF-295 = test system: SF-295
K562 = test system: K562
HL-60 = test system: HL-60
CCRF-CEM = test system: CCRF-CEM
SR = test system: SR

## Fc1sc2c(c1F)C1CCC2C1 (stereo unspecified)
M14
  GI50: > 100 µM (inactive)
A549
  GI50: > 100 µM (inactive)
NCI-H226
  GI50: > 100 µM (inactive)
T47D
  GI50: 88.3 µM (inactive)
PC-3
  GI50: 75.7 µM (inactive)
OVCAR-5
  GI50: > 100 µM (inactive)
Hs-578T
  GI50: 19.7 µM (inactive)
OVCAR-4
  GI50: > 100 µM (inactive)
786-0
  GI50: > 100 µM (inactive)
HOP-92
  GI50: > 100 µM (inactive)
RPMI-8226
  GI50: 31.9 µM (inactive)
UO-31
  GI50: 54 µM (inactive)
SK-MEL-28
  GI50: > 100 µM (inactive)
SK-MEL-2
  GI50: > 100 µM (inactive)
NCI-H23
  GI50: 58.3 µM (inactive)
SW-620
  GI50: > 100 µM (inactive)
MDA-MB-231
  GI50: 83.2 µM (inactive)
SN12C
  GI50: > 100 µM (inactive)
SK-OV-3
  GI50: > 100 µM (inactive)
TK-10
  GI50: > 100 µM (inactive)
EKVX
  GI50: > 100 µM (inactive)
NCI/ADR-RES
  GI50: 47.1 µM (inactive)
HCT-15
  GI50: 85.9 µM
SNB-75
  GI50: > 100 µM (inactive)
LOX IMVI
  GI50: 42.5 µM (inactive)
NCI-H522
  GI50: > 100 µM (inactive)
NCI-H460
  GI50: > 100 µM (inactive)
OVCAR-3
  GI50: 41.9 µM (inactive)
KM12
  GI50: > 100 µM (inactive)
DU-145
  GI50: 85.7 µM (inactive)
HCC 2998
  GI50: > 100 µM (inactive)
MCF7
  GI50: > 100 µM (inactive)
SF-268
  GI50: > 100 µM (inactive)
UACC-257
  GI50: 40.9 µM (inactive)
HOP-62
  GI50: > 100 µM (inactive)
OVCAR-8
  GI50: > 100 µM (inactive)
COLO 205
  GI50: 43.2 µM (inactive)
MDA-MB-435
  GI50: 56.4 µM (inactive)
Malme-3M
  GI50: > 100 µM (inactive)
ACHN
  GI50: > 100 µM (inactive)
HT-29
  GI50: 68.9 µM (inactive)
HCT-116
  GI50: 48.8 µM (inactive)
RXF 393
  GI50: 88.1 µM (inactive)
UACC-62
  GI50: 51.8 µM (inactive)
SK-MEL-5
  GI50: > 100 µM (inactive)
U-251
  GI50: 97.7 µM (inactive)
SF-539
  GI50: > 100 µM (inactive)
CAKI-1
  GI50: > 100 µM (inactive)
A498
  GI50: > 100 µM (inactive)
MDA-N
  GI50: 63.4 µM (inactive)
MOLT-4
  GI50: 34.6 µM (inactive)
IGROV-1
  GI50: 51.2 µM (inactive)
SNB-19
  GI50: > 100 µM (inactive)
SF-295
  GI50: > 100 µM (inactive)

## COC(=O)c1cc(CC2Cc3cc4c(cc3C2)CCC4)cc2c1CCC2
M14
  GI50: > 100 µM (inactive)
A549
  GI50: > 100 µM (inactive)
NCI-H226
  GI50: > 100 µM (inactive)
T47D
  GI50: > 100 µM (inactive)
PC-3
  GI50: 81.8 µM (inactive)
OVCAR-5
  GI50: > 100 µM (inactive)
Hs-578T
  GI50: > 100 µM (inactive)
OVCAR-4
  GI50: > 100 µM (inactive)
K562
  GI50: > 100 µM (inactive)
786-0
  GI50: > 100 µM (inactive)
HOP-92
  GI50: 88.9 µM (inactive)
RPMI-8226
  GI50: 41 µM (inactive)
UO-31
  GI50: > 100 µM (inactive)
SK-MEL-28
  GI50: > 100 µM (inactive)
SK-MEL-2
  GI50: 40.4 µM (inactive)
NCI-H23
  GI50: > 100 µM (inactive)
SW-620
  GI50: > 100 µM (inactive)
MDA-MB-231
  GI50: > 100 µM (inactive)
SN12C
  GI50: > 100 µM (inactive)
SK-OV-3
  GI50: > 100 µM (inactive)
TK-10
  GI50: > 100 µM (inactive)
EKVX
  GI50: > 100 µM (inactive)
NCI/ADR-RES
  GI50: > 100 µM (inactive)
HCT-15
  GI50: 67.5 µM
SNB-75
  GI50: > 100 µM (inactive)
HL-60
  GI50: 56.6 µM (inactive)
LOX IMVI
  GI50: 56.5 µM (inactive)
NCI-H522
  GI50: 57.4 µM (inactive)
CCRF-CEM
  GI50: 52.5 µM (inactive)
NCI-H460
  GI50: > 100 µM (inactive)
OVCAR-3
  GI50: > 100 µM (inactive)
KM12
  GI50: 61.5 µM (inactive)
DU-145
  GI50: > 100 µM (inactive)
HCC 2998
  GI50: > 100 µM (inactive)
MCF7
  GI50: 89.1 µM (inactive)
SF-268
  GI50: > 100 µM (inactive)
UACC-257
  GI50: 37.2 µM (inactive)
HOP-62
  GI50: > 100 µM (inactive)
OVCAR-8
  GI50: > 100 µM (inactive)
COLO 205
  GI50: > 100 µM (inactive)
MDA-MB-435
  GI50: 48 µM (inactive)
Malme-3M
  GI50: > 100 µM (inactive)
ACHN
  GI50: > 100 µM (inactive)
HT-29
  GI50: 49 µM (inactive)
HCT-116
  GI50: 58.7 µM (inactive)
RXF 393
  GI50: 62.2 µM (inactive)
SK-MEL-5
  GI50: 33.9 µM (inactive)
U-251
  GI50: > 100 µM (inactive)
SF-539
  GI50: > 100 µM (inactive)
CAKI-1
  GI50: > 100 µM (inactive)
A498
  GI50: > 100 µM (inactive)
SR
  GI50: 29.5 µM (inactive)
MDA-N
  GI50: 60.3 µM (inactive)
MOLT-4
  GI50: 23.7 µM (inactive)
IGROV-1
  GI50: 97.1 µM (inactive)
SNB-19
  GI50: > 100 µM (inactive)
SF-295
  GI50: > 100 µM (inactive)

— ChEMBL document CHEMBL1201862, “PubChem BioAssay data set” (2004)
